Data reported in US8148320B2, “Peptide inhibitors of ABL kinases” (New York Blood Center, Inc., priority 2005, dated 2012).
“Also recorded” adds a separate entry of the source. Read-outs that look alike come from different tables or passages of the source. Where no end group is shown, it is not given here.

How the values were obtained:
c-AbI kinase = c-AbI kinase assay with biotinylated model substrate peptide and 32P-γ-ATP; format: biochemical; conditions: for Fold Change (PEP): Vmax relative to PEP
Description: (§1) AbI kinase. His-tagged, uncapped active c-AbI, E46 through C-terminus (isoform 1b) (kind gift of Tony Koleske, Yale University, New Haven, Conn.), was produced and purified from baculovirus as described (Tanis et al., 2003) following treatment of insect cells with 30 μM STI-571 (Novartis Pharma AG, Basel, Switzerland) for 48 hrs prior to cell lysis. The expressed protein was affinity purified on nickel-nitriloacetic acid agarose, washed to remove the inhibitor, and subsequently purified by ion-exchange chromatography using a Mono S column (Amersham Biosciences, Piscataway, N.J.). GST fusions of c-AbI SH2 domain wild type and SH2 domain containing the R171K mutation, and mammalian expression plasmid containing c-AbI-GST (isoform 1b, with the GST at the C-terminus) were obtained from Bruce Mayer (University of Connecticut Health Center, Farmington, Conn.).
Kinase assay. Measurement of kinase activity was essentially as described in (Tanis et al., 2003), using biotinylated model substrate peptide GGEAIYAAPFKK (SEQ ID NO: 16), (Brasher and Van Etten, 2000; Songyang et al., 1995) and ^32P-γ-ATP. SAM2 streptavidin-coated membrane (Promega Corφoration, Madison Wis.) was used to capture the substrate. Kinase assay mixtures contained 50 mM Tris-HCI pH 7.5, 10 mM MgCl2, 1 mM EGTA, 2 mM dithiothreitol, 0.01% Brij 35, and 100 μM ATP, 2 nM AbI kinase, substrate peptides, and Abil ligand peptides as indicated. Reactions were carried out for 5 min. at 30° C. To evaluate c-AbI kinase activity in LnCAP cell lines, cells were treated with pervanadate for 10 min. prior to cell lysis, and immunoprecipitates from lysed cells were tested using GST-Crk as substrate.

AbI SH2 domain = biological target: T1, AbI SH2 domain (Homo sapiens, UniProt P00519); experiment: Surface plasmon resonance (Biacore) binding of biotinylated Abi1 peptides to GST-tagged AbI SH2 domain
T1 construct: GST-tagged AbI SH2 domain; gift of Bruce Mayer (University of Connecticut Health Center)
T1 sequence (P00519 127-217 limits assumed): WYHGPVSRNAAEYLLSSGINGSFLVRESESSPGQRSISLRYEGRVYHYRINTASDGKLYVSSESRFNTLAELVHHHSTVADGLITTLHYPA
Description: as §1
Surface Plasmon Resonance Assay. Surface plasmon resonance assay was performed using a Biacore 3000 instrument (BlAcore Inc., Piscataway, N.J.). Biotinylated 14-residue peptides, pY213 or Y213, were coupled to surface of streptavidin-coated (SA) biosensor chip (BIAcore Inc., Piscataway, N.J.). […] Sensograms (plots of changes in response unit on the surface as a function of time) derived were analyzed using the software BIAeval 3.0. […]

[1] = concentrations lower than 2 mM, 100 μM substrate peptide
[2] = peptide concentration 2 mM, 100 μM substrate peptide
[3] = increasing peptide concentrations, 100 μM substrate peptide

GGEAIYAAPFKK (also: biotinylated, site not given here) [PEP, reference compound]
Km (c-AbI kinase; Km of substrate peptide PEP alone): 21.2 ± 3.37 µM
Fold Change (PEP) (c-AbI kinase; PEP alone): 1.00
Vmax (c-AbI kinase; substrate peptide PEP alone, no Abi1 peptide, mean ± s.d., n=3): 157.79 ± 9.29 pmol/min-μg

GTLSRTNPLTQKPPSPPMSGRGTLGRNTPYKTLEPVKPPTVPNDpYMTSP [Pro-pY213]
effect on c-AbI kinase activity (in words) (c-AbI kinase): showed inhibition
effect on c-AbI kinase activity (in words) (c-AbI kinase; [1]): no inhibition was observed
effect on c-AbI kinase activity (in words) (c-AbI kinase; peptide 1.5 mM): decrease of activity
effect on c-AbI kinase activity (in words) (c-AbI kinase; peptide 0.75 to 1.25 mM): increased the kinase activity
effect on c-AbI kinase activity (in words) (c-AbI kinase; peptide 1.75 and 2 mM): inhibition
effect on c-AbI kinase activity (in words) (c-AbI kinase; [2]): enhanced the inhibitory effect
Kd (in words) (AbI SH2 domain; GST-SH2, Biacore, data not shown): low millimolar range

Pro-F198: Abi1 peptide spanning residues 169-203 with Y198 to F198 replacement (GTLSRTNPPTQKPPSPPMSGRGTLGRNTPFKTLEP; UniProt Q8IZP0 169-203, looked up, variant Y198F)
effect on c-AbI kinase activity (in words) (c-AbI kinase; [3]): effect was lost

Pro-Y198: Abi1 peptide spanning residues 169-203, with PXXP motif PPSPP and Y198, excludes pY213 sequence
effect on c-AbI kinase activity (in words) (c-AbI kinase; [3]): increased inhibition

Y213: 14-residue Abi1 peptide containing nonphosphorylated tyrosine 213 (VKPPTVPNDYMTSP; not fully specified) [Peptide Y213]
effect on c-AbI kinase activity (in words) (c-AbI kinase): showed inhibition; also recorded: most potent inhibition
Vmax (c-AbI kinase; Abi1 peptide at 2 mM, 5-min assay, increasing substrate peptide, mean ± s.d., n=3): 2.90 ± 1.16 pmol/min-μg
Km (c-AbI kinase; Km of substrate peptide, Abi1 peptide at 2 mM): 16.3 ± 0.6 µM
Km (c-AbI kinase; Km of substrate peptide, Y213 at 0.1): 14.9 ± 2.74 µM
Km (c-AbI kinase; Km of substrate peptide, Y213 at 0.25): 16.5 ± 7.29 µM
Fold Change (PEP) (c-AbI kinase; Abi1 peptide at 2 mM): 0.018
Fold Change (PEP) (c-AbI kinase; Y213 at 0.1): 0.71
Fold Change (PEP) (c-AbI kinase; Y213 at 0.25): 0.55
Vmax (c-AbI kinase; Y213 peptide at 0.1 (mM)): 112.11 ± 7.80 pmol/min-μg
Vmax (c-AbI kinase; Y213 peptide at 0.25): 86.68 ± 19.71 pmol/min-μg
effect on c-AbI kinase activity (in words) (c-AbI kinase; [1]): significant kinase inhibition at lower concentrations than the pY213 peptide
effect on c-AbI kinase activity (in words) (c-AbI kinase; [2]): more significant reduction of the kinase activity than pY213

pY213: 14-residue Abi1 peptide containing phosphorylated tyrosine 213; Abi1 14-mer sequence vkpptvpndymtsp (SEQ ID NO:5) (VKPPTVPNDYMTSP)
Kd (AbI SH2 domain; peptide on SA chip, varying AbI SH2 concentration, 1:1 binding model, read-out: dissociation constant, KD): 33.2 nM
